According to PubChem BioAssay (NCI):
Several values for one entry are separate records, joined by “and”; a condition that tells them apart may be missing. Equal values may be shown once.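 Briefly, cells in 96-well plates were exposed to five compound concentrations for 48 h, and endpoints were estimated by linear interpolation. The concentration for full growth arrest is given as TGI.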

Experiments:
Assay in all cases: growth of human tumour cells (NCI), 48 h
[1] = tested on: HOP-18 NSCLC
[2] = tested on: DMS 114 small cell lung
[3] = tested on: LXFL 529 NSCLC
[4] = tested on: NCI-H522 lung
[5] = tested on: RXF 393 renal
[6] = tested on: DLD-1 colon
[7] = tested on: HOP-92 NSCLC
[8] = tested on: SF-295 CNS
[9] = tested on: SNB-78 CNS
[10] = tested on: XF 498 CNS
[11] = tested on: KM20L2 colon
[12] = tested on: DMS 273 small cell lung
[13] = tested on: SK-OV-3 ovarian
[14] = tested on: M19-MEL melanoma
[15] = tested on: HS 578T breast
[16] = tested on: MCF7 breast
[17] = tested on: RXF-631 renal

Row | Compound | TGI [1] [µM] | TGI [2] [µM] | TGI [3] [µM] | TGI [4] | TGI [5] [µM] | TGI [6] [µM] | TGI [7] | TGI [8] [µM] | TGI [9] [µM] | TGI [10] [µM] | TGI [11] [µM] | TGI [12] [µM] | TGI [13] [µM] | TGI [14] [µM] | TGI [15] [µM] | TGI [16] | TGI [17] [µM]
1 | O=c1[nH]c(Br)nc2c(N3CCCCC3)c[nH]c12 | > 100 | > 100 | > 100 | 81.8 µM | > 100 | > 100 | > 100 µM | > 100 | > 100 | > 100 | > 100 | > 100 | > 100 | > 100 |  |  | 
2 | C[C@]12CC[C@H]3[C@@H](CCC4=CC(=O)CC[C@@]43C)[C@@H]1CC[C@@H]2OC(=O)c1cccc2c(=O)c3ccccc3[nH]c12 |  |  |  | > 100 µM | > 100 |  | > 100 µM | > 100 |  |  |  |  | > 100 |  | > 100 | > 100 µM | 
3 | COC1=CC(=O)C2C(C1=O)[C@@H]1c3ccccc3OC[C@H]21 (stereo partly specified) | > 100 | > 100 | > 100 | > 100 µM | > 100 | > 100 | > 100 µM | > 100 | > 100 |  | > 100 | > 100 | > 100 |  |  |  | 
4 | N#C/C=C\c1ccc(-c2cc(C(F)(F)F)cc(C(F)(F)F)c2)o1 |  |  |  | > 100 µM | > 100 |  | 50 µM | 46 |  |  |  |  | > 100 |  | 54.8 | > 100 µM | 
5 | COc1cc(C2SC(N)=Nc3c2c(C)nn3C(=O)c2ccc(Cl)cc2)ccc1O (stereo unspecified) |  |  |  | > 10 µM | > 10 |  | > 10 µM | > 10 |  |  |  |  | > 10 |  | > 10 | > 10 µM | 
6 | COc1cc2c3c4c1OCc1c5c(cc(c1-4)CC3[N+](C)(C)CC2)OCO5 (stereo unspecified) |  |  |  | 98 µM | > 100 |  | > 100 µM | > 43 |  |  |  |  | > 100 |  | 31.7 | > 100 µM | 
7 | Cc1nc2c(s/c(=N\N)n2-c2ccccc2)c(=O)n1C |  | > 100 | > 100 | > 100 µM | > 100 |  | > 100 µM | > 100 | > 100 | > 100 | > 100 | > 100 | > 100 | > 100 |  |  | 
8 | CCN1CCC(O)(/C=C/c2ccc(Cl)cc2)C(C(=O)/C=C/c2ccc(Cl)cc2)C1 (stereo unspecified) |  | > 100 | 28 | 81.5 µM |  | 33.8 |  | 60.3 | > 100 | > 100 | 99.3 | 60.2 | 61.7 | 92.9 |  |  | 
9 | Cc1cn(C2CC(O)C(Cn3nncc3Cn3ccc(=O)[nH]c3=O)O2)c(=O)[nH]c1=O (stereo unspecified) |  |  |  | > 100 µM | > 100 |  | > 100 µM | > 100 |  |  |  |  | > 100 |  | > 100 | > 100 µM | 
10 | OCC(O)C(O)C(C=NNc1ncnc2ccc(Br)cc12)=NNc1ncnc2ccc(Br)cc12 (stereo unspecified) |  |  |  | 11.3 µM and 35.9 µM | 72.4 |  | 10.4 µM and > 100 µM | > 100 |  |  |  |  | > 100 |  | > 100 | 35 µM and > 100 µM | 
11 | NC(=O)N=Nc1c2ccccc2n2[nH]ccc12 |  |  |  | > 100 µM | 59.4 |  | > 100 µM | > 100 |  |  |  |  | > 100 |  | > 100 | 66.7 µM | 
12 | Cc1cc(C)nc(NS(=O)(=O)c2ccc(NC(=O)c3ccc4nc5ccccc5c(Nc5ccc(S(=O)(=O)Nc6nc(C)cc(C)n6)cc5)c4c3)cc2)n1 |  |  |  | 53.5 µM | > 100 |  | > 100 µM | > 100 |  |  |  |  | > 100 |  | > 100 | 84.5 µM | 
13 | Cc1ccccc1NC(=O)CC(=O)n1nc(-c2ccccc2)c(N=Nc2ccc([N+](=O)[O-])cc2)c1-c1ccccc1 | 87.8 | 30.3 | > 100 | 45.5 µM | 82 | > 100 | 34 µM | 49.6 | > 100 | 51.7 | 32.8 | 49.4 | 57.7 |  |  |  | 41.6
14 | COC(=O)c1ccccc1Nc1ccccc1C(=O)OC |  |  |  | > 100 µM | > 100 |  | 75.5 µM | > 100 |  |  |  |  | > 100 |  | 72.2 | > 100 µM | 
15 | N#Cc1c(Nc2ccccc2)[n+]([O-])c2ccc(Cl)cc2[n+]1[O-] |  |  |  | 6.49 µM | > 100 |  | 4.22 µM | > 74.3 |  |  |  |  | > 100 |  | > 72.8 | > 35.2 µM | 
16 | COc1cc(C2S/C(=C/c3ccccc3)C(=O)N2c2ccccn2)cc(OC)c1OC (stereo unspecified) |  |  |  | 24.6 µM | 22.8 |  | 33.6 µM | > 83.3 |  |  |  |  | > 90.6 |  | > 68 | > 57.9 µM | 
17 | O=c1cc(-c2cccc(Br)c2)[nH]c2cc3c(cc12)OCO3 | 46.7 | 11 | 18.6 | 18.3 µM | 14.3 | 31.2 |  | 6.52 | 20.5 | 14.5 |  | 22.4 | 17 | > 100 | 26 | > 100 µM | 
18 | NNC(=O)CSc1nnc(CCCCCCCCc2nnc(SCC(=O)NN)o2)o1 |  |  |  | > 100 µM | > 100 |  | > 100 µM | > 100 |  |  |  |  | > 100 |  | > 100 | > 100 µM | 
